10 molecules from patent US10966999B2, “3′3′ cyclic dinucleotides with phosphonate bond activating the sting adaptor protein” (INSTITUTE OF ORGANIC CHEMISTRY AND BIOCHEMISTRY ASCR, V.V.I., priority 2017, dated 2021) can be followed below.

The target of assay [1] is T1, WT STING (Homo sapiens, UniProt Q86WV6, H232R).
T1 construct: encoded truncated human WT STING or AQ STING (amino acid residues 140-343) with N-terminal 8×His and SUMO tag; 8xHis-SUMO (N, cleaved yes); made in house; host or cells: E. coli Rosetta-gami B (DE3)
Put plainly: Differential Scanning Fluorimetry (DSF) with WT STING. The class given is binding. The note with it: thermal shift vs STING apoprotein; 150 μM CDN; 0.1 mg/ml protein; SYPRO Orange. How it is done:
(§1) WT STING and AQ STING Proteins
(§2) Purified PCR products were cleaved with restriction enzymes BamHI (cat. #R0136S, NEB, Ipswich, USA) and NotI (cat. #R0189S, NEB, Ipswich, USA) and cloned into the pSUMO vector linearized with the identical enzymes.
(§3) DNase I (cat. #D5025, Sigma Aldrich, Czech Republic) and RNase A (cat. #R6513, Sigma Aldrich, Czech Republic) were added (final concentration 50 μg/ml) together with MgCl2 (final concentration 5 mmol·l^−1) to the homogenate and bacteria were lysed using French Press G-M™ High-Pressure Cell Press Homogenizer (1500 psi, 3 cycles). […] The resin was poured into a chromatography column, washed with 50 ml buffer A (50 mmol·l^−1 TrisCl (pH 8.0), 800 mmol·l^−1 NaCl, 3 mmol·l^−1 3-mercaptol; 10% glycerol; 20 mmol·l^−1 imidazole) and 8-His-SUMO tagged STING proteins were eluted with 15 ml buffer A containing 300 mmol·l^−1 imidazole. […] Proteins were concentrated with Amicon® Ultra-15 10 K device (cat. #UFC901008, Merck Millipore, Billerica, USA) and flash frozen in liquid N2.
(§4) Differential Scanning Fluorimetry (DSF) with WT STING and AQ STING
(§5) 20 μL solutions of the reaction mixtures were pipetted in triplicates into 96 well optical reaction plates and thermal denaturation of samples were performed on real time PCR cycler (LightCycler R 480 Instrument II—Roche, Basel, Switzerland). The first derivative of the thermal denaturation curves was performed to calculate denaturing temperatures of STING-CDN complexes and STING apoproteins. The thermal shift for each CDN was calculated by subtracting the average denaturing temperature of STING apoprotein from the average denaturing temperature of STING CDN complex.
On the technique in general: Differential scanning fluorimetry follows unfolding on heating by fluorescence.

Assay [2] deals with T2, AQ STING (G230A-R293Q) (Homo sapiens, UniProt Q86WV6, G230A/H232R/R293Q).
T2 construct: encoded truncated human WT STING or AQ STING (amino acid residues 140-343) with N-terminal 8×His and SUMO tag; 8xHis-SUMO (N, cleaved yes); made in house; host or cells: E. coli Rosetta-gami B (DE3)
Put plainly: Differential Scanning Fluorimetry (DSF) with AQ STING. The class given is binding. Conditions: thermal shift vs STING apoprotein; 150 μM CDN; 0.1 mg/ml protein; SYPRO Orange. The procedure:
as §1, §2, §3, §4, §5

Assay [3] concerns the target T3, human wild type STING (WT STING) (Homo sapiens, UniProt Q86WV6, H232R).
T3 construct: host or cells: 293T (ATCC CRL-3216), stably transfected, with a 4xISRE firefly luciferase reporter
Put plainly: Digitonin assay using 293T wtSTING-FL reporter cells. The class given is cell-based. Conditions: 293T wtSTING-FL cells; ISRE firefly luciferase reporter; 30 min in Digitonin buffer, then 5 hours; 8-point dose-response curve. From the text: ISRE Reporter Plasmid (pGL64.27-4×ISRE)
Two complementary oligonucleotides of the sequence […] […] […] […] […] The oligonucleotides were mixed in equal molar amounts, hybridized, and cleaved by restriction endonucleases HindIII (cat. #. R0104S, NEB, Ipswich, USA) and BglII (cat. #R0144S, NEB, Ipswich, USA). Ultimately, they were ligated into plasmid pGL4.27 (cat. #E6651, Promega, Madison, USA) linearized with the same enzymes. As result the sequence with four ISRE sites was placed upstream of the minimum promoter of firefly luciferase reporter gene.
After 5 minutes incubation at room temperature (RT), 250 μL of the mixture was added dropwise to the cells in one well. Cells were incubated 36 hours at 37° C. with 5% CO2, and then detached with 0.05% Trypsin and 0.22 g/L EDTA (both cat. #L0941, Biowest, Riverside, USA).
Transfected cells were seeded onto poly-D-lysine coated six well plates at density 50,000 cells per 1 cm^2 in DMEM medium with high glucose containing 10% heat inactivated FBS, 30 μg/mL blasticidin (cat. #ant-bl-05, InvivoGen, San Diego, USA), 0.06 mg/ml Penicillin G and 0.1 mg/ml Streptomycin Sulfate (both cat. #. L0018, Biowest, Riverside, USA). The medium was replenished every 3-4 days until visible colonies of cells resistant to blasticidin were formed.
Blasticidin resistant cells stably expressing WT STING were further transfected with pGL64.27-4×ISRE plasmid following the same procedure as described above. […] Homogeneous culture of stably double transfected cells was prepared by limiting dilution of cells in 96 well plates and wells with cells were selected that originated from a single cell.
The medium was removed next day and three fold serial dilutions of compounds in Digitonin buffer containing 50 mmol·l^−1 HEPES (cat. #H3375, Sigma Aldrich, Czech Republic) pH 7.0, 100 mmol·l^−1 KCl, 3 mmol·l^−1 MgCl2, 0.1 mmol·l^−1 DTT (cat. #D0632, Sigma Aldrich, Czech Republic), 85 mmol·l^−1 Sucrose (cat. #S7903, Sigma Aldrich, Czech Republic), 0.2% BSA (cat. #A2153, Sigma Aldrich, Czech Republic), 1 mmol·l^−1 ATP (cat. #A1852, Sigma Aldrich, Czech Republic), 0.1 mmol·l^−1 GTP (cat. #G8877, Sigma Aldrich, Czech Republic), and 10 μg/mL Digitonin A (cat. #D141, Sigma Aldrich, Czech Republic) were added to the cells. The buffer was removed after 30 minutes incubation at 37° C. with 5% CO2, the cells were washed once with 100 μl of cultivation medium, and 100 μl of medium was added to each well. The plates with cells were incubated for 5 hours at 37° C. with 5% CO2, 50 μl of the medium was removed and 30 μl of ONE-Glo™ Luciferase Assay System reagent (cat. #E6120, Promega, Madison, USA) was added to each well. Luminescence was read on Synergy H1 (Biotek, Winooski, USA).
(A reporter such as luciferase makes a cellular process visible.)

T1 sequence (Q86WV6 140-343 H232R): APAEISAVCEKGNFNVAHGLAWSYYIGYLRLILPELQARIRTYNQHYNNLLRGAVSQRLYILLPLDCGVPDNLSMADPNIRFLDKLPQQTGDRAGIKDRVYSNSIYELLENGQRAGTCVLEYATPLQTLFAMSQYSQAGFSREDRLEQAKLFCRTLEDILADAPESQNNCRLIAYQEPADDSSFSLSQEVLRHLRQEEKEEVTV
T2 sequence (Q86WV6 140-343 G230A/H232R/R293Q): as the sequence (Q86WV6 140-343 H232R) above, with G91A, R154Q counted along it
T3 sequence (Q86WV6 whole entry H232R): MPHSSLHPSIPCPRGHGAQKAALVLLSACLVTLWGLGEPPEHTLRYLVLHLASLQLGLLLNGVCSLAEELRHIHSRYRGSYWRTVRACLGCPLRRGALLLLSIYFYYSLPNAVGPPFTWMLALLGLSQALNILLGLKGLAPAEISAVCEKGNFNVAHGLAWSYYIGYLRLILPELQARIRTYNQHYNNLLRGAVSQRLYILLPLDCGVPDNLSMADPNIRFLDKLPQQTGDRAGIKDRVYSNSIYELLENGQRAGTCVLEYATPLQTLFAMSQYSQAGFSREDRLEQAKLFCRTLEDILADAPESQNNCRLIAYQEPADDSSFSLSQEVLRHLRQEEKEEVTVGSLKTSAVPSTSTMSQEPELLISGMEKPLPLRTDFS

One may read the ΔTm as the change in melting temperature against a reference sample. As a reminder, the EC50 is the concentration needed to bring the measured effect to its halfway point. In the case of `Nc1ncnc2c1ncn2[C@@H]1O[C@@H]2OCP(=O)(O)OC3C(O)[C@H](n4cnc5c(N)ncnc54)O[C@@H]3COP(=O)(O)OC2C1O` (single isomer, unassigned) [Compound 32], the ΔTm at 150 µM in assay [1] was determined as 0.8 °C; in assay [2], 6.4 °C. In addition, the EC50 in assay [3] is 1200 nM.

Consider `Nc1nc2c(ncn2[C@@H]2O[C@@H]3COP(=O)(O)O[C@@H]4[C@H](O)[C@@H](COP(=O)(O)O[C@@H]2[C@@H]3O)O[C@H]4n2cnc3c(N)ncnc32)c(=O)[nH]1` [2′2′-cGAMP, reference compound], for which, in assay [1], the “DSF ΔTm WT STING” value was 11.5 °C. Moreover, the “DSF ΔTm AQ STING” value in assay [2] stood at 19.4 °C. Further, the EC50 in assay [3] turned out to be 30 nM.

As for `Nc1ncnc2c1ncn2[C@@H]1O[C@@H]2COP(=O)(O)O[C@H]3[C@@H](O)[C@H](n4cnc5c(N)ncnc54)O[C@@H]3COP(=O)(O)O[C@H]2[C@H]1O` [3′3′c-di-AMP, 3′3′-c-di-AMP, reference compound], in assay [1], the “DSF ΔTm WT STING” value is 2.6 °C. The “DSF ΔTm AQ STING” value in assay [2] was found to be 9.3 °C. Further, the EC50 in assay [3] stood at 300 nM.

On to `Nc1nc2c(ncn2[C@@H]2O[C@@H]3COP(=O)(O)O[C@H]4[C@@H](O)[C@H](n5cnc6c(=O)[nH]c(N)nc65)O[C@@H]4COP(=O)(O)O[C@H]3[C@H]2O)c(=O)[nH]1` [3′3′c-di-GMP, 3′3′-c-di-GMP, reference compound], for which the “DSF ΔTm WT STING” value in assay [1] is 2.6 °C. Besides, the “DSF ΔTm AQ STING” value in assay [2] worked out at 7.7 °C. The concentration giving a half-maximal response (EC50) in assay [3] amounted to 5800 nM.

Regarding `Nc1ncnc2c1ncn2[C@@H]1O[C@@H]2OCP(=O)(O)OC3C(O)[C@H](n4cnc5c(N)ncnc54)O[C@@H]3OCP(=O)(O)OC2C1O` (stereo partly drawn) [Compound 31, (2R,3R,3aS,7aR,9R,10R,10aS,14aR)-2,9-bis(6-amino-9H-purin-9-yl)-3,5,10,12-tetrahydroxydecahydrodifuro[2,3-e:2′,3′-k][1,4,7,10]tetraoxa[2,8]diphosphacyclododecine 5,12-dioxide], the ΔTm at 150 µM is 0.1 °C in assay [1] and 2.5 °C in assay [2]. The EC50 in assay [3] was found to be 19200 nM.

For the molecule `Nc1ncnc2c1ncn2[C@@H]1O[C@@H]2COCP(=O)(O)OC3C(F)[C@H](n4cnc5c(N)ncnc54)O[C@@H]3COP(=O)(O)OC2C1O` (stereo partly drawn) [Compound 34, (2R,3R,3aS,7aR,9R,10R,10aR,15aR)-2,9-bis(6-amino-9H-purin-9-yl)-10-fluoro-3,5,12-trihydroxydecahydro-2H-difuro[2,3-e:2′,3′-1][1,3,7,10]tetraoxa[2,8]diphosphacyclotridecine 5,12-dioxide], the ΔTm at 150 µM in assay [1] was 0.2 °C; in assay [2] it was 4.3 °C. In assay [3], the concentration for a half-maximal effect (EC50) was found to be 19600 nM.

For `Nc1nc2c(ncn2[C@@H]2O[C@@H]3COCP(=O)(O)OC4C(F)[C@H](n5cnc6c(N)ncnc65)O[C@@H]4COP(=O)(O)OC3C2O)c(=O)[nH]1` (stereo partly drawn) [Compound 35, 2-amino-9-((2R,3R,3aS,7aR,9R,10R,10aR,15aR)-9-(6-amino-9H-purin-9-yl)-10-fluoro-3,5,12-trihydroxy-5,12-dioxidodecahydro-2H-difuro[2,3-e:2′,3′-l][1,3,7,10]tetraoxa[2,8]diphosphacyclotridecin-2-yl)-1,9-dihydro-6H-purin-6-one], the ΔTm at 150 µM came out at 2.3 °C in assay [1] and 9 °C in assay [2]. Besides, the EC50 in assay [3] was determined as 2400 nM.

Regarding `Nc1nc2c(ncn2[C@@H]2O[C@@H]3OCP(=O)(O)OC4C(O)[C@H](n5cnc6c(=O)[nH]c(N)nc65)O[C@@H]4OCP(=O)(O)OC3C2O)c(=O)[nH]1` (stereo partly drawn) [Compound 36], the thermal shift (ΔTm) at 150 µM is 0.6 °C in assay [1] and 5.6 °C in assay [2]. The EC50 in assay [3] worked out at 8100 nM.

As to `Nc1nc2c(ncn2[C@@H]2O[C@@H]3OCP(=O)(O)OC4C(O)[C@H](n5cnc6c(N)ncnc65)O[C@@H]4COP(=O)(O)OC3C2O)c(=O)[nH]1` (stereo partly drawn) [Compound 37], the ΔTm at 150 µM was 7.6 °C in assay [1] and 15.9 °C in assay [2]. Moreover, the concentration for a half-maximal effect (EC50) in assay [3] worked out at 5 nM.

On to `Nc1nc2c(ncn2[C@@H]2O[C@@H]3OCP(=O)(O)OC4C(O)[C@H](n5cnc6c(N)ncnc65)O[C@@H]4OCP(=O)(O)OC3C2O)c(=O)[nH]1` (stereo partly drawn) [Compound 38], for which the ΔTm at 150 µM was 1.9 °C in assay [1] and 9.5 °C in assay [2]. For the same molecule, in assay [3], the EC50 was found to be 200 nM.
